Measured values: ChEMBL document CHEMBL5233288, “Ginkgo Biflavones Cause p53 Wild-Type Dependent Cell Death in a Transcription-Independent Manner of p53” (J Nat Prod, 2023)
Activity calls are given as the source filed them. The rule behind the calls is not given here.

How the values were obtained:
[1] = Toxicity against BALB/c nude mouse xenografted with human HCT-116 cells assessed as body weight loss at 30 mg/kg, ip administered once every 3 days for 12 days and measured every 2 days; assay type: organism-based; conditions: in vivo, 288 h, time 12 day
HCT-116 = test: Antitumor activity against human HCT-116 cells xenografted in BALB/c nude mouse assessed as reduction in tumor volume at 30 mg/kg, ip administered once every 3 days for 12 days and measured every 2 days; assay type: functional, organism-based; conditions: time 12.0 day

SMILES: O=c1[nH]cc(F)c(=O)[nH]1 [FLUOROURACIL]
- Activity [1]: Toxic
- Activity (HCT-116): Active
